Reference: patent EP1482971B1, “STRATEGY FOR RETROVIRAL IMMUNOTHERAPY” (priority 2002, dated 2003)
Where two headings read alike, the source gives them in different places.

Assays:
MAIDS virus [1] = assay: Spleen cell transfer into Vb-treated MAIDS infected mice; type: in vivo
From the text: The experiments illustrated in Figure 7 were designed to determine if a single dose of Vb, administered at 14 days pi, is eliminating a population of expanding CD4^+ regulator T cells and thereby releasing effector cells from down-regulation and clearing the host of the MAIDS virus.
Mice were infected with MAIDS, received day 14 pi Vb treatment and then received an adoptive transfer of ∼10^7 spleen cells from donor mice prepared as outlined in Figure 7. For each experiment [designated (I), (II) and (III)] groups consisted of 7 recipient mice and 9 donor mice. Mice in Group I received whole spleens from infected mice that had not received any Vb treatment. Mice in Group II received whole spleen cell preparations, from infected mice, that had been depleted of CD4^+ cells using a FACS cell sorter after staining with fluorochrome-labeled anti-CD4 monoclonal antibody. […] Mice in Group III received whole spleens from infected donor mice that also received Vb treatment on day 14 pi.

[2] = test system: LP-BM5 murine leukemia virus (MuLV); assay: MAIDS development after a single dose of vinblastine at different times post infection (spleen weight, histology, FACS analysis); type: in vivo, C57BL/6 mice
From the text: A murine AIDS (MAIDS) pathology induced by LP-BM5 murine leukemia virus (MuLV) in susceptible mice is an effective tool to investigate mechanisms of retrovirus-induced immunodeficiency. […] Infection of a susceptible strain such as C57BL/6 mice with LP-BM5 leads to chronic splenomegaly, hypergammaglobulinaemia and development of immunodeficiency in both T and B cells. In vitro, there is a progressive impairment in the responsiveness of T-cells and B-cells to mitogenic or specific antigenic stimuli. In vivo, infected mice become increasingly susceptible to challenge with a variety of opportunistic organisms and can develop B-cell lymphoma. Deaths are first observed at 8-10 weeks post-infection (pi), and all mice die within 24 weeks (Figure 1). These alterations in immune function reflect complex changes in the phenotype and function of all components of the immune network.
The treatment with a single dose of the anti-mitotic agent vinblastine (Vb) at different times pi is able to prevent the development/progression of MAIDS. […] Clearly, the Vb treatment is remarkably therapeutic when administered at 6 hr or 14 days pi with 100% (10/10) and 74% (20/27) of mice, respectively, showing no signs of MAIDS development at 10 weeks pi (as determined by spleen weight, histology and FACS analysis). […] Additional experiments have provided results of 100% of mice having no signs of MAIDS development at least 12 months after Vb treatment 14 days pi (data not shown). Although not as pronounced as the protection seen after day 14 treatment, moderate protection from MAIDS development was still observed. […] The total protection from MAIDS development seen in mice given Vb at 6 hrs pi is not unexpected as the virus replicates in actively replicating cells which are the target of the anti-mitotic drug thus any cells infected with the virus are killed by the Vb preventing the virus from rapidly establishing an infection in the host. However, the highly protective effect observed after a single treatment with Vb at 14 days pi is quite remarkable as, by this stage, the viral infection is well established and the early disease processes are well underway. We propose that this highly therapeutic effect is due to the Vb targeting a particular subset of immune regulator cells during their expansion phase and thereby altering the immune response to the viral infection. […] This leads to long term disease free survival for many months post-infection and treatment.
Spleens from the Day 14 pi Vb treated mice as well as infected and uninfected control mice were weighed and examined histologically. The splenic architecture of all MAIDS infected mice was profoundly disorganised as previously reported (Hartley et al., 1989).

MAIDS virus [3] = assay: Rechallenge with MAIDS virus following protective vinblastine therapy; type: in vivo, mice; conditions: Vb at day 14 pi, rechallenged at 3 or 8 weeks post Vb treatment; assessed at 20 weeks
From the text: To determine if mice protected from MAIDS by the day 14 pi Vb treatment develop an immune response which would then protect them from a subsequent rechallenge with the MAIDS virus groups of mice, given the Vb therapy at day 14 pi, were rechallenged with the MAIDS virus at 3 or 8 weeks post Vb treatment. […] This is not an unexpected result as the dominant immunosuppression by the regulator population of cells would have been restored as a consequence of the immune effector response to the second (untreated) infection.

MAIDS virus [4] = assay: Adoptive transfer of CD4+CD25+/- cells into MAIDS infected day 14 Vinblastine treated mice; type: in vivo; conditions: MAIDS-infected day 14 Vb-treated recipients given CD4+CD25+ or CD4+CD25- cells from uninfected donors
From the text: An adoptive transfer experiment was designed to directly test the hypothesis that CD4+CD25+ T cells are functioning as the regulator cells in the murine AIDS model. The same approach used to determine that the regulator cells are CD4+ T cells was used to test whether the CD4+CD25+ subset are the target of day 14 Vinblastine treatment. […] 2.0x10^6 cells of the regulator CD4+CD25+ phenotype were purified from single cell suspensions of donor spleens using MACS beads (Miltenyi Biotec) using two positive selection steps. The cells were then tested for purity by flow cytometry (both CD4+CD25+ and CD4+CD25- fractions were of > 90 % purity) and viability using trypan blue exclusion prior to transfer into uninfected (control) and MAIDS infected day 14 Vinblastine treated mice. CD4+CD25- cells were also transferred to allow that the regulator cells may not present in the CD25+ fraction and also to allow for the possibility that these putative regulator cells may lose CD25 expression as they expand and become activated as was reported by Gavin et al., 2002.
Mice receiving adoptive transfer of cells were either uninfected (control) or MAIDS infected and day 14 Vinblastine treated to examine whether the transfer of cells would result in disease progression. […] Disease progression was assessed by spleen weight at 10 weeks post MAIDS infection. […]

murine T cell lymphoma = conditions: cited from earlier work
[5] = test system: CD4^+ T cells and CD25^+CD4^+ T cells; assay: Direct FACS analysis of spleen cells following Vb therapy on day 14 post infection; type: in vivo, mice; conditions: spleens collected 48 hours post Vb treatment
Method: FACS analysis of CD4^+ and CD8^+ T cells prepared from spleens of mice treated with Vb on Day 14 pi was performed (Figure 6). CD25^+CD4^+ T cells were also examined as they have recently been identified as having an important regulatory function in mouse models of autoimmune disease and tumour immunology (Takahashi et al., 1998; Shimizu et al., 1999). It is possible that these cells may play a role in the regulation of the immune response to MAIDS. Day 14 pi and uninfected control mice were given Vb therapy and the spleens collected at 48 hours post Vb treatment.

Structure (SMILES): CC[C@]1(O)C[C@@H]2CN(CCc3c([nH]c4ccccc34)[C@@](C(=O)OC)(c3cc4c(cc3OC)N(C)[C@H]3[C@@](O)(C(=O)OC)[C@H](OC(C)=O)[C@]5(CC)C=CCN6CC[C@]43[C@@H]65)C2)C1 [Vb, vinblastine]
- protective effect of Vb against MAIDS development after spleen cell transfer (MAIDS virus [1]; Group I: day 14 pi Vb, then ~10^7 whole spleen cells from MAIDS infected donors without Vb): completely prevented Vb from protecting mice from MAIDS development
- protective effect of Vb against MAIDS development after spleen cell transfer (MAIDS virus [1]; Group II: donor spleen cells depleted of CD4^+ cells by FACS sorting before transfer): the protective effect of Vb was not overcome
- protective effect of Vb against MAIDS development after spleen cell transfer (MAIDS virus [1]; Group III: spleen cells from MAIDS infected donors also given day 14 Vb): fully protected from MAIDS development
- mice protected from any splenomegaly at 20 weeks pi ([2]; Vb at day 14 pi, 4/5 mice): 80%
- mice having no signs of MAIDS development at least 12 months after Vb treatment ([2]; Vb treatment 14 days pi, additional experiments, data not shown): 100%
- cellular proportions (CD4^+, CD8^+ and B cells) and distributions of spleen cells by FACS analysis ([2]; day 14 pi Vb treated mice at 10 weeks pi, preliminary, data not shown): like those observed in normal uninfected mice
- splenic architecture (spleen histology) ([2]; day 14 pi Vb treated mice with normal spleen weights (below 0.25g), 10 weeks pi): indistinguishable from that of uninfected control mice
- mice showing no signs of MAIDS development at 10 weeks pi ([2]; single 6mg/kg i.p. dose given at 6 hr pi, 10/10 mice, by spleen weight, histology and FACS analysis): 100%
- mice with protective effect (no signs of MAIDS development at 10 weeks pi) ([2]; single 6mg/kg i.p. dose given at 6 days pi, 6/13 mice): 46%
- mice showing no signs of MAIDS development at 10 weeks pi ([2]; single 6mg/kg i.p. dose given at 14 days pi, 20/27 mice): 74%
- protection against MAIDS development ([2]; single 6mg/kg i.p. dose given at day 2 pi): no protection against MAIDS development
- protection against MAIDS development ([2]; single 6mg/kg i.p. dose given at day 7 pi): no protection against MAIDS development
- protection from viral rechallenge (MAIDS virus [3]): not protected from viral rechallenge
- disease progression (spleen weight at 10 weeks post MAIDS infection) after adoptive cell transfer (MAIDS virus [4]): disease progression was readily apparent
- effect on tumour (murine T cell lymphoma; single dose at day 10 following tumour inoculation): enhancement
- effect on tumour (murine T cell lymphoma; single dose at days 4, 6, 13 and 15 following tumour inoculation): regression
- effect on spleen cell subsets ([5]; Vb at day 14 pi and in uninfected controls): all cell subsets are reduced
- cell subsets preferentially targeted in MAIDS infected mice (uninfected to infected ratios) ([5]; Vb at day 14 pi): CD4^+ T cells and CD25^+CD4^+ T cells that are preferentially targeted
